{"source": "PubChem BioAssay AID1745844", "about": "(Carcinogenic Potency Database (CPDB), 2022)", "tested_on": "rodent lifetime carcinogenesis bioassay, tumor incidence TD50", "assay": "carcinogenic potency in animals, long-term in vivo studies, CPDB compilation (AID 1745844)", "note": "Calls of active or inactive are those of the source. The rule behind the calls is not given here.", "data": [{"smiles": "Nc1cc([N+](=O)[O-])ccc1O", "values": [{"measurement": "carcinogen call", "setting": "mouse, strain B6C3F1, females, by gavage, site: any site (literature study), lesion: several types, types named in the paper, dosed 103 weeks, study length 105 weeks", "result": "negative (inactive)"}, {"measurement": "TD50", "setting": "mouse, strain B6C3F1, females, by gavage, site: liver, lesion: hepatocellular adenoma + hepatocellular carcinoma + neoplastic nodule, dosed 103 weeks, study length 105 weeks", "result": 2160, "unit": "mg/kg/day"}, {"measurement": "TD50", "setting": "mouse, strain B6C3F1, females, by gavage, site: lung, lesion: alveolar/bronchiolar adenoma + alveolar/bronchiolar carcinoma, dosed 103 weeks, study length 105 weeks", "result": 2180, "unit": "mg/kg/day"}, {"measurement": "TD50", "setting": "mouse, strain B6C3F1, males, by gavage, site: abdominal cavity + liver + mesenteric lymph node + pancreas + spleen + subcutaneous tissue, lesion: hemangioma + hemangiosarcoma, dosed 103 weeks, study length 105 weeks", "result": "798 mg/kg/day (inactive)"}, {"measurement": "TD50", "setting": "mouse, strain B6C3F1, males, by gavage, site: any site (literature study), lesion: several types, types named in the paper, dosed 103 weeks, study length 105 weeks", "result": 582, "unit": "mg/kg/day"}, {"measurement": "carcinogen call", "setting": "rat, strain Fischer 344, females, by gavage, site: any site (literature study), lesion: several types, types named in the paper, dosed 103 weeks, study length 105 weeks", "result": "negative (inactive)"}, {"measurement": "TD50", "setting": "rat, strain Fischer 344, males, by gavage, site: any site (literature study), lesion: several types, types named in the paper, dosed 103 weeks, study length 105 weeks", "result": 84.1, "unit": "mg/kg/day"}, {"measurement": "TD50", "setting": "rat, strain Fischer 344, males, by gavage, site: kidney cortex, lesion: adenoma, NOS, dosed 103 weeks, study length 105 weeks", "result": 839, "unit": "mg/kg/day"}, {"measurement": "TD50", "setting": "rat, strain Fischer 344, males, by gavage, site: liver, lesion: hepatocellular adenoma + hepatocellular carcinoma + neoplastic nodule, dosed 103 weeks, study length 105 weeks", "result": 1300, "unit": "mg/kg/day"}, {"measurement": "TD50", "setting": "rat, strain Fischer 344, males, by gavage, site: liver, lesion: hepatocellular carcinoma + neoplastic nodule, dosed 103 weeks, study length 105 weeks", "result": 1300, "unit": "mg/kg/day"}, {"measurement": "TD50", "setting": "rat, strain Fischer 344, males, by gavage, site: subcutaneous tissue, lesion: fibroma, dosed 103 weeks, study length 105 weeks", "result": 584, "unit": "mg/kg/day"}, {"measurement": "TD50", "setting": "rat, strain Fischer 344, males, by gavage, site: subcutaneous tissue, lesion: fibrosarcoma + fibroma + neurofibrosarcoma + sarcoma, NOS, dosed 103 weeks, study length 105 weeks", "result": 458, "unit": "mg/kg/day"}, {"measurement": "TD50", "setting": "rat, strain Fischer 344, males, by gavage, site: testis, lesion: interstitial-cell tumor, dosed 103 weeks, study length 105 weeks", "result": 68.2, "unit": "mg/kg/day"}]}, {"smiles": "CC(=O)OC/C=C(C)/C=C/C=C(C)/C=C/C1=C(C)CCCC1(C)C", "values": [{"measurement": "TD50", "setting": "rat, strain F344/DuCrj, females, in drinking water, site: adrenal medulla, lesion: pheochromocytoma, malignant, dosed 104 weeks, study length 108 weeks", "result": 7340, "unit": "mg/kg/day"}, {"measurement": "TD50", "setting": "rat, strain F344/DuCrj, females, in drinking water, site: adrenal medulla, lesion: pheochromocytoma, dosed 104 weeks, study length 108 weeks", "result": 227, "unit": "mg/kg/day"}, {"measurement": "TD50", "setting": "rat, strain F344/DuCrj, females, in drinking water, site: liver, lesion: neoplastic nodule, dosed 104 weeks, study length 108 weeks", "result": 7340, "unit": "mg/kg/day"}, {"measurement": "TD50", "setting": "rat, strain F344/DuCrj, males, in drinking water, site: adrenal medulla, lesion: pheochromocytoma, malignant, dosed 104 weeks, study length 108 weeks", "result": 552, "unit": "mg/kg/day"}, {"measurement": "TD50", "setting": "rat, strain F344/DuCrj, males, in drinking water, site: adrenal medulla, lesion: pheochromocytoma, dosed 104 weeks, study length 108 weeks", "result": 86.4, "unit": "mg/kg/day"}, {"measurement": "carcinogen call", "setting": "rat, strain F344/DuCrj, males, in drinking water, site: forestomach, lesion: neoplasm, dosed 52 weeks, study length 52 weeks", "result": "negative (inactive)"}, {"measurement": "TD50", "setting": "rat, strain F344/DuCrj, males, in drinking water, site: liver, lesion: cholangioma, dosed 104 weeks, study length 108 weeks", "result": 6470, "unit": "mg/kg/day"}, {"measurement": "TD50", "setting": "rat, strain F344/DuCrj, males, in drinking water, site: liver, lesion: neoplastic nodule, dosed 104 weeks, study length 108 weeks", "result": 2060, "unit": "mg/kg/day"}, {"measurement": "TD50", "setting": "rat, strain F344/DuCrj, males, in drinking water, site: liver, lesion: several types, types named in the paper, dosed 104 weeks, study length 108 weeks", "result": 3670, "unit": "mg/kg/day"}, {"measurement": "TD50", "setting": "rat, strain F344/DuCrj, males, in drinking water, site: spleen, lesion: mononuclear-cell leukemia, dosed 104 weeks, study length 108 weeks", "result": 548, "unit": "mg/kg/day"}, {"measurement": "TD50", "setting": "rat, strain F344/DuCrj, males, in drinking water, site: thyroid gland, lesion: c-cell adenoma, dosed 104 weeks, study length 108 weeks", "result": 671, "unit": "mg/kg/day"}, {"measurement": "TD50", "setting": "rat, strain F344/DuCrj, males, in drinking water, site: thyroid gland, lesion: several types, types named in the paper, dosed 104 weeks, study length 108 weeks", "result": 976, "unit": "mg/kg/day"}]}, {"smiles": "C=CC(OCC)OCC", "values": [{"measurement": "TD50", "setting": "rat, strain Fischer 344, females, in drinking water, site: liver, lesion: hyperplastic nodule, dosed 102 weeks, study length 130 weeks", "result": 131, "unit": "mg/kg/day"}, {"measurement": "TD50", "setting": "rat, strain Fischer 344, females, in drinking water, site: liver, lesion: several types, types named in the paper, dosed 102 weeks, study length 130 weeks", "result": 123, "unit": "mg/kg/day"}, {"measurement": "TD50", "setting": "rat, strain Fischer 344, males, in drinking water, site: liver, lesion: hepatocellular carcinoma, dosed 102 weeks, study length 130 weeks", "result": 262, "unit": "mg/kg/day"}, {"measurement": "TD50", "setting": "rat, strain Fischer 344, males, in drinking water, site: liver, lesion: hyperplastic nodule, dosed 102 weeks, study length 130 weeks", "result": 266, "unit": "mg/kg/day"}, {"measurement": "TD50", "setting": "rat, strain Fischer 344, males, in drinking water, site: liver, lesion: several types, types named in the paper, dosed 102 weeks, study length 130 weeks", "result": 124, "unit": "mg/kg/day"}]}]}
